Row | Structure (SMILES) | melting point [°C]
1 | CCCCCCCCC(=O)OCC(O)COC(=O)CCCCCCCC | 30 to 31
2 | CCOC(=O)C(OCOc1ccc(-c2ccc(Cl)cc2)cc1)(C(F)(F)F)C(F)(F)F | 42 to 43
3 | COc1cc2c(c(OC)c1OC)C(CN1CCC(c3noc4cc(F)ccc34)CC1)=C2 | 141 to 143
4 | OCc1ccc(-c2ccc(OC(F)(F)F)cc2)nc1 | 57 to 58
5 | CCOC(=O)NC(=S)OCc1ccccc1 | 96
6 | Cc1cc2cc(Cl)ccc2n1Cc1ccccc1 | 75 to 76
7 | CC(C)(C)OC(=O)Nc1cc(Cl)c(-c2ccccc2)cc1N | 109 to 111
8 | Cn1cc(Br)nc(Nc2ccc3c(c2)CCNC3)c1=O | 170 to 171
9 | Cc1nc(Br)cnc1N | 51 to 52
10 | Oc1ccc(-c2ccc(-c3c(Cc4ccccc4)sc4ccccc34)cc2)cc1Br | 54 to 56
11 | O=C1C(c2ccccc2)=C(c2ccccc2)C(=O)N1CC(=O)N1c2ccccc2N(Cc2ccccc2)C(=O)C2CCCC21 (stereo not given) | 207 to 208
12 | CC(C)Oc1ccc(CCC(=O)NS(=O)(=O)c2ccccc2)c(Oc2ncc(C(F)(F)F)cc2Cl)c1 | 129 to 130
13 | N#CN1CCN(c2nn(-c3ccccc3)c3ccccc23)CC1 | 118 to 120
14 | COC(=O)NC(=O)NS(=O)(=O)c1ccc(Cl)cc1 | 174 to 175
15 | CN1CCC(N2CC=CC3=C2C(O)c2ccc(Cl)cc2SC3)CC1 (stereo not given) | 158 to 160
16 | COC1C(OC(N)=O)CCC2(CO2)C1C1(C)OC1CC=C(C)C (stereo not given) | 125 to 126
17 | CC1=C(Br)C=CC(Cl)(C=NO)C1 (stereo not given) | 77 to 78
18 | CCCc1nc(C)c(C(=O)OCC)n1Cc1ccc2oc(-c3ccccc3NS(=O)(=O)C(F)(F)F)c(Br)c2c1 | 123 to 125
19 | COC(=O)c1ccc2cc(NC(=O)OC(C)(C)C)ccc2c1 | 178 to 180
20 | CC(Sc1nnnn1-c1ccccc1)C(=C(C#N)C#N)c1ccccc1 (stereo not given) | 145 to 146
21 | CC(OCc1cc2nc(C(F)(F)F)ccc2n1S(=O)(=O)c1ccccc1)C(=O)O (stereo not given) | 140
22 | CC(C)C(CN1CCC(Nc2nc3ccccc3n2-c2cccc3c2NCCC3)CC1)NCc1ccccc1 (stereo not given) | 126
23 | CN(CCCS(=O)CCCC(F)(F)C(F)(F)F)CCOc1ccc(C2=C(c3ccccc3)CCCc3ccccc32)cc1 (stereo not given) | 74 to 77
24 | CC(=O)NCC1CN(c2ccc(N3CCC(O)(C(C#N)C4CC4)CC3)c(F)c2)C(=O)O1 (stereo not given) | 170 to 172

Row | Structure (SMILES) | melting point [°C]
25 | CON=C(c1ccccc1COc1ccc(Cl)cc1)c1ncnn1C | 113 to 114
26 | O=C(O)c1cc([N+](=O)[O-])c(Cl)c(S(=O)(=O)Cl)c1 | 189 to 190
27 | Cc1cc(F)ccc1-c1nc(NCCNC(=O)NC2CCCCC2)nc2c1ccc(=O)n2-c1c(F)cccc1F | 131 to 144
28 | Nc1ccc2c(c1)OCC21C(=O)N(CC2CCCO2)c2ccccc21 (stereo not given) | 71 to 74
29 | CCC(O)(C(N)=O)c1cc(C(F)(F)F)cc(C(F)(F)F)c1 (stereo not given) | 128 to 129
30 | OCCNCCOc1ccc(C2=C(c3ccccc3)CCCc3cc(O)ccc32)cc1 | 176 to 178
31 | O=C(Nc1cccc(C(F)(F)F)c1)Nc1ccc(Oc2ncnc3cc[nH]c23)cc1Cl | 316 to 319
32 | Cc1ccc2c(n1)Nc1ccccc1N(C)C2=O | 192 to 194
33 | COc1ccc(C=Cc2cc(Cl)c(OC)c(OC)c2)cc1O | 105 to 106
34 | CCCCc1cccc2[nH]c(C(=O)OCC)cc(=O)c12 | 132 to 133
35 | Cc1ccc2c(cc(CCCC(=O)O)n2S(=O)(=O)c2ccccc2)n1 | 172 to 180
36 | Cc1cc(Cl)c(N)c([N+](=O)[O-])c1 | 68.5 to 69.5
37 | O=C(Nc1cc(S(=O)(=O)NCCO)sc1Cl)c1cnn2c(C(F)(F)F)cc(-c3ccc(C(F)(F)F)cc3)nc12 | 191
38 | CCOC(=O)C=C1CSC(NC(=O)c2ccccc2)=NN1C(=O)c1ccccc1 | 187 to 189
39 | CC(C)(C)c1cc(N2CCCC2=O)cc(C(C)(C)C)c1O | 173 to 175
40 | O=C(CC(O)(c1cc(Cl)cc(Cl)c1)C(F)(F)F)c1ccc(F)c(Br)c1 (stereo not given) | 134 to 135
41 | CSc1cnc2c(c1)CCC(c1ccc(Cl)c(Cl)c1)O2 (stereo not given) | 109 to 111
42 | CCCCOC1c2ccccc2C(=O)N(CC2CC2)C1(/C=C/C(=O)O)CNC(=O)OC(C)(C)C (stereo not given) | 229 to 230
43 | CCCCNc1cc(-c2ccccc2)nc2nn(C)cc12 | 160 to 161
44 | Cc1ccc(-c2ccc(C(=O)Nc3cc4ncc(CN5CCCC5)cc4cc3C)cn2)cc1 | 214 to 218
45 | O=C(NC1CCN(Cc2ccccc2)CC1)c1ccccc1OCc1ccnc2ccccc12 | 144 to 146
46 | CCC1(CCCCN2CCN(c3ccccn3)CC2)C(=O)Nc2c(Cl)cc(Cl)cc21 (stereo not given) | 144 to 146
47 | CCCCc1nc(C(O)C(C)(C)C)c(C(N)=O)n1Cc1ccc(-c2ccccc2C(=O)O)cc1 (stereo not given) | 150 to 154
48 | CC(=O)N1c2ccccc2Sc2cc([N+](=O)[O-])ccc21 | 144 to 146

Row | Structure (SMILES) | melting point [°C]
49 | O=c1[nH]c(=O)n(COC(CO)CO)cc1Cc1cccc(OCc2ccccc2)c1 | 113
50 | COC(=O)c1cccc2[nH]c3ccccc3c12 | 84.3
51 | Oc1ccc(Nc2nc(Cl)nc(Cl)n2)cc1Cl | 180
52 | CC1(C)CCC(C)(C)c2cc(C(=O)NNC(=O)c3ccc(C#N)cc3)ccc21 | 274 to 277
53 | Cc1ccc2cc(NC(=O)c3cccc(SCc4cc(Nc5ccccc5)n[nH]4)c3)ccc2n1 | 172 to 174
54 | Cn1ncc(/C=C/C(=O)Nc2ccc(CCc3nnco3)cc2)c1-c1ccc(F)cc1 | 177 to 178
55 | CC(=O)OCCCN(C)CCCN(C)C(=O)[C@@H]1CCCN1S(=O)(=O)c1ccc(Cl)c(COc2cccc3c(-n4ccnc4)cc(C)nc23)c1Cl | 90
56 | COc1ccc(CCNC(=O)C(N)=O)cc1OC | 171 to 172
57 | O=C(NC/C=C\COc1cc(CN2CCCCC2)ccn1)c1cc(-c2ccccc2)on1 | 105 to 106
58 | CCC(O)(c1ccc(OCCN(C)C)cc1)c1cccc(Cl)c1 (stereo not given) | 108 to 109
59 | CNS(=O)(=O)c1cscc1CO | 118 to 119
60 | Cc1cccc(C)c1NC(=O)c1cc(C)n(C)n1 | 155
61 | Cc1cn(-c2cc(Br)c3c(c2)CCC(=O)N3)c(C)n1 | 242
62 | Cn1cc(-c2ccccc2)c(=S)c(-c2ccccc2)c1 | 168 to 171
63 | C#CCON=C(C(C)=NOCc1ccccc1C(=COC)C(=O)OC)c1ccccc1 | 163 to 165
64 | CC(=O)Nc1cc(C)cc(OCc2ccccc2)c1C | 139 to 140
65 | CCOC(=O)c1ccc(NCCCCCCOc2ccc3ccccc3c2)cc1 | 109 to 110
66 | CCC(CC)C(=C(C#N)c1nc[nH]n1)S(=O)(=O)c1ccc(C)cc1 | 78 to 87
67 | COc1ccc(N2CCN(c3c(C)c4c(c(OC)c3C)OC(C)C4)CC2)cc1C (stereo not given) | 94 to 96
68 | CCOC(=O)N1CCC(Cc2nc3ccccc3n2Cc2cccc(C)n2)CC1 | 160
69 | Cc1cc(OCc2nc3ccccc3s2)ccc1N | 110 to 111
70 | O=C(O)CN1C(=O)C(=Cc2ccc(C(=O)O)cc2)SC1=S | > 300

Source: a melting point compilation (Tetko et al.; mined from patent text by program, amines drawn as free bases though some values may be those of a salt)
